From US20190083420A1, “METHODS OF USING (2R, 6R)-HYDROXYN[…] (2S, 6S)-HYDROXYN[…] THE TREATMENT OF DEPRESSION, ANXIETY, ANHEDONIA, FATIGUE, SUICIDAL IDEATION, AND POST TRAUMATIC STRESS DISORDERS” (The Uinited States of America, as represented by the …, priority 2016, published 2019)

Assays:
[1] = Tissue distribution of ketamine and metabolites (plasma and brain levels)
Description: Mice were euthanized by a 30-sec exposure to 3% isoflurane and decapitated at 10, 30, 60, 240 or 480 minutes following drug administration. Trunk blood was collected in EDTA-containing tubes and centrifuged at 8000 rpm for 6 min (4° C.). Plasma was collected and stored at −80° C. until analysis. Whole brains were simultaneously collected, rinsed with phosphate-buffered saline, immediately frozen in dry ice and stored at −80° C. until analysis.
The concentrations of ketamine and its metabolites in plasma and brain tissue were determined by achiral liquid chromatography-tandem mass spectrometry. For plasma samples, the calibration standards for (R,S)-ketamine, (R,S)-norketamine, (2R,6R;2S,6S)-HNK and (R,S)-DHNK ranged from 10,000 ng/ml to 19 ng/ml. The quantification of (R,S)-ketamine, (R,S)-norketamine, (R,S)-DHNK, and the HNK stereoisomers was accomplished by calculating area ratios using D4-ketamine (10 μl of 10 μg/ml solution) as the internal standard. Whole brains were suspended in 990 μl of water:methanol (3:2, v/v), D4-ketamine (10 μl of 10 μg/ml) added and the resulting mixture homogenized on ice with a polytron homogenizer and centrifuged at 21,000×g for 30 min. The supernatant was collected and processed using 1 ml Oasis HLB solid phase extraction cartridges (Waters Corp., Waltham, Mass.). The cartridges were preconditioned with 1 ml of methanol, followed by 1 ml of water and then 1 ml ammonium acetate [10 mM, pH 9.5]. The supernatants were added to the cartridges, followed by 1 ml of water and the compounds were eluted with 1 ml of methanol. The eluent was transferred to an autosampler vial for analysis. QC standards for the analysis of (R,S)-ketamine, (R,S)-norketamine, (R,S)-DHNK and (2R,6R;2S,6S)-HNK ranged from 10,000 ng/ml to 19 ng/ml, and quantification was accomplished using D4-(R,S)-ketamine as the internal standard. QC standards were prepared daily by adding 10 μl of the appropriate standard solution and 10 μl of internal standard solution (100 ng/ml) to methanol.

[2] = plasma of humans; cited from earlier work
mice [3] = test: Open field test (locomotor activity); type: in vivo; settings: 1 hour after i.p. drug
Description: Mice were placed into individual open-field arenas (50 cm length×50 cm width×38 cm height; San Diego Instruments, San Diego, Calif., USA) for a 60-min habituation period. Mice were then injected with the respective drug and assessed for locomotor activity for another 60 min. Distance travelled was analyzed using TopScan v2.0 (CleverSys, Inc, Reston, Va., USA).

mice [4] = test: Accelerating rotarod (motor coordination); type: in vivo; settings: 5-60 min post-injection, i.p.
Description: The rotarod test was conducted to compare the effects of ketamine, (2S,6S)-HNK and (2R,6R)-HNK on motor coordination. The experiment consisted of two phases: training phase (4 days) and a test phase (1 day). On each of the training days five trials (trial time: 3 min) were conducted with an inter-trial interval of two min Mice were individually placed on the rotarod apparatus (HTC Life Science; Woodland Hills, Calif., USA) and the rotor (3.75 inch diameter) accelerated from 5-20 RPM over a period of three minutes. Latency to fall was recorded for each trial. Animals with an average of <100 sec of latency to fall during the last training day were excluded from the experiment. On the test day (day 5), mice received (i.p.) injections of saline, (R,S)-KET (10 mg/kg), (2S,6S)-HNK (25 or 125 mg/kg) or (2R,6R)-HNK (2.5 or 125 mg/kg) and were tested in the rotating rod 5-. 10-, 15-, 20-, 30- and 60-min post-injection using the same procedure described for the training days.

male CD-1 mice [5] = test: Learned helplessness (LH); type: in vivo; settings: single injection; for antidepressant-like effect in learned helplessness (escape failures): test 24 hours after administration
Description: (§1) Male CD-1 mice (8-10 weeks old, Charles River Laboratories, Mass., USA) were housed in groups of four-five per cage with a constant 12-hour light/dark cycle (lights on/off at 07:00/19:00). Food and water were available ad libitum. Mice acclimatized to the new environment for seven days prior to the start of the experiments. For the whole-cell NMDA current electrophysiological recordings, male Sprague-Dawley rats (housed three per cage; Charles River, Wilmington, Mass.) were used. EPSC recording were done from rats at postnatal day 24-25. All experimental procedures were approved by the University of Maryland, Baltimore Animal Care and Use Committee and were conducted in full accordance with the National Institutes of Health Guide for the Care and Use of Laboratory Animals.
The LH paradigm consisted of three different phases, i.e., inescapable shock training, LH screening, and the LH test. For the inescapable shock portion of the test (Day 1), the animals were placed in one side of two-chambered shuttle boxes (34 cm height×37 cm width×18 cm depth; Coulbourn Instruments, PA, USA), with the door between the chambers closed. Following a five-min adaptation period, 120 inescapable foot-shocks (0.45 mA, 15 sec duration, randomized average inter-shock interval of 45 sec) were delivered through the grid floor. During the screening session (Day 2), the mice were placed in one of the two chambers of the apparatus for 5 min. A shock (0.45 mA) was then delivered, and the door between the two chambers was raised simultaneously. Crossing over into the second chamber terminated the shock. […] A total of 30 screening trials of escapable shocks were presented to each mouse with an average of 30 sec delay between each trial. Mice that developed helplessness behavior (>5 escape failures during the last 10 screening shocks) were administered with the respective drug 24 hours following screening (Day 3). During the LH test phase (Day 4), the animals were placed in the shuttle boxes and, after a 5-min adaptation period, a 0.45 mA shock was delivered concomitantly with door opening for the first five trials, followed by a 2-sec delay for the next 40 trials. Crossing over to the second chamber terminated the shock. […] A total of 45 trials of escapable shock were presented to each mouse with 30 sec inter-trial intervals. The number of escape failures was recorded for each mouse.

male CD-1 mice [6] = test: Novelty-suppressed feeding (NSF); type: in vivo; settings: i.p.
Description: as §1
Mice were singly housed and food-deprived for twenty-four hours in freshly-made home-cages. Two normal chow diet pellets were placed on a square food platform (10×10 cm) in the center of an open-field arena (40×40 cm). […] The time needed for the mice to take a bite of food was recorded over a 10 min period by a trained observer blind to the treatment groups. After the test, the mice were returned to their home cage containing pre-weighed food pellets, and latency to bite the food as well as consumption was recorded for a period of 10 min.

male CD-1 mice [7] = test: Forced-swim test (FST); type: in vivo; settings: 1- and 24-hours post-injection, times not separated, i.p.
Description: as §1
Mice were tested in the FST 1 hour and/or 24 hours post-injection. During the FST, mice were subjected to a 6-min swim session in clear Plexiglass cylinders (30 cm height×20 cm diameter) filled with 15 cm of water (23±1° C.). The FST was performed in normal light conditions (800 Lux). Sessions were recorded using a digital video-camera. Immobility time, defined as passive floating with no additional activity other than that necessary to keep the animal's head above water, was scored for the last 4 min of the 6-min test by a trained observer blind to the treatment.
All drugs were dissolved in 0.9% saline, and administered intraperitoneally (i.p.) in a volume of 7.5 ml/kg of body mass. Corticosterone (4-pregnen-11β, 21-diol-3, 20-dione 21-hemisuccinate; Steraloids, Newport, R.I., USA) was dissolved in tap water. For the electrophysiology recordings, test drugs were diluted in artificial cerebrospinal fluid (AC SF).

NMDA receptor = settings: (S)-ketamine versus (R)-ketamine; cited from earlier work

SMILES: N[C@@]1(c2ccccc2Cl)CCC[C@@H](O)C1=O [(2S,6S;2R,6R)-HNK, (2S,6S;2R,6R)-hydroxynorketamine]
- brain levels following ketamine administration, female mice compared to males ([1]; brain): three fold higher
- metabolite found in plasma and brain following ketamine administration ([1]; mice, (R,S)-KET 10 mg/kg i.p.): major HNK metabolite
- metabolite found in plasma following ketamine administration [2]: major HNK metabolite

SMILES: N[C@]1(c2ccccc2Cl)CCC[C@H](O)C1=O [(2S,6S)-HNK, (2S,6S)-2-amino-2-(2-chlorophenyl)-6-hydroxycyclohexanone]
- brain hydroxynorketamine levels after administration of (2S,6S)-HNK versus (2R,6R)-HNK ([1]; brain): higher brain hydroxynorketamine levels compared to (2R,6R)-HNK
- locomotor activity in the open-field test (mice [3]): increased locomotor activity
- locomotor activity in the open-field test (mice [3]; listed as (2S,6S)-hydroxynorketamine): dose-dependently changed locomotor activity
- motor coordination in the rotarod (mice [4]): motor incoordination
- motor coordination in the rotarod (mice [4]; listed as (2S,6R)-HNK): induced motor incoordination
- doses with antidepressant-like effects in learned helplessness (male CD-1 mice [5]): 75 mg/kg
- antidepressant-like effect in learned helplessness (escape failures) (male CD-1 mice [5]): induced antidepressant-like effects

SMILES: CN[C@@]1(c2ccccc2Cl)CCCCC1=O [(R)-ketamine, reference compound]
- brain levels of (R)-ketamine compared to (S)-ketamine ([1]; brain, after (S)- and (R)-KET): does not result from higher brain levels
- antidepressant-like effect in novelty-suppressed feeding (latency to feed) (male CD-1 mice [6]): greater potency
- antidepressant effect in the FST (immobility time) (male CD-1 mice [7]): greater potency
- antidepressant-like effect in learned helplessness (escape failures) (male CD-1 mice [5]): greater potency

SMILES: CN[C@]1(c2ccccc2Cl)CCCCC1=O [(S)-ketamine]
- potency as inhibitor of the NMDA receptor relative to (R)-ketamine (NMDA receptor): ~4 fold
